In US9914733B2, “Biisoquinoline compounds and methods of treatment” (UNIVERSITY OF FLORIDA RESEARCH FOUNDATION, priority 2014, dated 2018):
Where two headings read alike, the source gives them in different places.

Assays:
[1] = test system: MCF7 cells; experiment: Clonogenic cell growth inhibition assay, MCF7; type: cell-based, human; conditions: for IC50: Homo sapiens, MCF7 triple-positive breast cancer cells, 48 h treatment, colonies counted after additional 10 days, read-out: IC50, drug concentration required for 50% growth inhibition
Procedure: (§1) The following human breast cancer cell lines were used in these studies: (a) Triple-positive: BT474, MCF7 and T47D, (b) Triple-negative: MDA-MB231 and MDA-MB468. Cells were grown in the following medium at 37° C. under a humidified atmosphere of 5% CO2: DMEM (BT474 cells), RPMI (MCF7 and T47D cells) and MEM (MDA-MB231 and MDA-MB468 cells). For each cell line, the medium was supplemented with 10% fetal bovine serum (Hyclone, Logan, Utah) 100 U/ml of penicillin, and 100 μg/ml of streptomycin.
(§2) Cells were trypsinized and a single cell suspension was prepared. Cells were plated at a density of 5×10^2-1×10^3 cells in 60 mm tissue culture plates. After the attachment, cells were treated with different concentrations of biisoquinolines 1a-d for 48 h. After the treatment, medium containing drug was removed and supplemented with fresh medium. Cells were allowed to grow into colonies for additional 10 days. Colonies were fixed, stained with 0.3% (w/v) methylene blue, and excess of the dye was removed after washing with PBS. Colonies containing more than fifty cells were counted and the IC50 values, i.e., drug concentrations required for 50% growth inhibition of these cell lines were determined as described in our previous studies. [Balusu, R.; Jaiswal, A. S.; Armas, M. L.; Kundu, C. N.; Bloom L, B.; Narayan S. Biochemistry 2007, 46, 13961; Jaiswal, A, S.; Banerjee, S.; Panda, H.; Bulkini, C. D.; Izumi, T.; Sarkar, F. H.; Ostrov, D. A.; Narayan, S. Mol. Cancer Res. 2009, 7, 1973] The IC50 of each compound was determined from the survival curve using the SigmaPlot-10.0 software program.

[2] = test system: T47D cells; experiment: Clonogenic cell growth inhibition assay, T47D; type: cell-based, human; conditions: for IC50: Homo sapiens, T47D triple-positive breast cancer cells, 48 h treatment, colonies counted after additional 10 days, read-out: IC50, drug concentration required for 50% growth inhibition
Procedure: as §1, §2

[3] = test system: MDA-MB231 cells; experiment: Clonogenic cell survival / cell growth inhibition assay, MDA-MB231; type: cell-based, human; conditions: for IC50: 48 h treatment, colonies counted after additional 10 days, read-out: IC50, drug concentration required for 50% growth inhibition; for toxicity to cells (result in words): MDA-MB231 cells, clonogenic assay
Procedure: as §1, §2
6,6′,7,7′-tetramethoxy biisoquinoline-imidazolium 1a, as well as its precursor compounds, bisamide 3a, and diimine 4a, were tested for the growth inhibitory effect on MDA-MB-231 cells by using the clonogenic cell survival assay [Balusu, R.; Jaiswal, A. S.; Armas, M. L.; Kundu, C. N.; Bloom L, B.; Narayan S. Biochemistry 2007, 46, 13961; Jaiswal, A, S.; Banerjee, S.; Panda, H.; Bulkin, C. D.; Izumi, T.; Sarkar, F. H.; Ostrov, D. A.; Narayan, S. Mol. Cancer Res. 2009, 7, 1973]. […] Then, three other methoxylated biisoquinoline-imidazolium compounds (1b-d) were tested to probe the optimal methoxy substitution pattern.

[4] = test system: MDA-MB468 cells; experiment: Clonogenic cell growth inhibition assay, MDA-MB468; type: cell-based; conditions: Homo sapiens, MDA-MB-468; MDA-MB468 triple-negative breast cancer cells; 48 h treatment, colonies counted after additional 10 days; read-out: IC50, drug concentration required for 50% growth inhibition
Procedure: as §1, §2

[5] = test system: BT474 cells; experiment: Clonogenic cell growth inhibition assay, BT474; type: cell-based; conditions: Homo sapiens, BT-474; BT474 triple-positive breast cancer cells; 48 h treatment, colonies counted after additional 10 days; read-out: IC50, drug concentration required for 50% growth inhibition
Procedure: as §1, §2

[6] = Homo sapiens, MDA-MB-231, MDA-MB231 triple-negative breast cancer cells
[7] = MDA-MB231 triple-negative breast cancer cells

| IC50 [1] [µM] | IC50 [2] [µM] | IC50 [4] [µM] | IC50 [5] [µM] | fold higher IC50 than compound 1c ([1]; MCF7 cells, IC50 of noscapine relative to IC50 of 1c) [folds] | Structure (SMILES) | IC50 [3, 6] [µM] | IC50 [3, 7] [µM] | toxicity to cells (result in words) [3] | sensitivity of cells to the compound (result in words) ([1]; MCF7 cells, clonogenic assay) | sensitivity of cells to the compound (result in words) ([2]; T47D cells, clonogenic assay) | fold higher IC50 than compound 1c ([3]; MDA-MB-231 cells, IC50 of noscapine relative to IC50 of 1c) [folds] |
| --- | --- | --- | --- | --- | --- | --- | --- | --- | --- | --- | --- |
| 35 | 34 | 2.6 | 3.1 |  | COc1cc2c(cc1OC)-c1c3[n+](cn1CC2)CCc1cc(OC)c(OC)cc1-3 [1a, 2,2′,3,3′-tetramethoxy-5,6,8,9-tetrahydro-6a,7a-diazadibenzo[c,g]fluorenium]chloride] | 19 | 20.8 |  |  |  |  |
| 7.9 | 13.5 | 2.1 | 0.7 |  | COc1ccc2c(c1OC)CCn1c[n+]3c(c1-2)-c1ccc(OC)c(OC)c1CC3 [1b, 3,3′,4,4′-tetramethoxy-5,6,8,9-tetrahydro-6a,7a-diazadibenzo[c,g]fluorenium]chloride] | 18.2 | 14.2 |  |  |  |  |
| 1.3 | 1 | 1.8 | 0.3 |  | COc1ccc2c(c1)CCn1c[n+]3c(c1-2)-c1ccc(OC)cc1CC3 [1c, 3,3′-dimethoxy-5,6,8,9-tetrahydro-6a,7a-diazadibenzo[c,g]fluorenium]chloride] | 4.7 | 2.4 |  |  |  |  |
|  |  |  |  |  | COc1cc2c(c(OC)c1OC)CCn1c[n+]3c(c1-2)-c1cc(OC)c(OC)c(OC)c1CC3.[Cl-] [1d, 2,2′,3,3′,4,4′-hexamethoxy-5,6,8,9-tetrahydro-6a,7a-diazadibenzo[c,g]fluorenium]chloride] |  |  | did not show any toxicity |  |  |  |
|  |  | 35.4 | 34.1 |  | COc1cccc(CCNC(=O)C(=O)NCCc2cccc(OC)c2OC)c1OC [3b, N^1,N^2-bis(2,3-dimethoxyphenethyl)oxalamide] |  |  | did not show any cytotoxicity | resistant | resistant |  |
|  |  |  |  |  | COc1cc2c(cc1OC)C(C1=NCCc3cc(OC)c(OC)cc31)=NCC2 [4a, 6,6′,7,7′-tetramethoxy-3,3′,4,4′-tetrahydro-1,1′-biisoquinoline] |  |  | non-toxic |  |  |  |
| 57 |  |  |  | 44 | COc1ccc2c(c1OC)C(=O)O[C@@H]2[C@H]1c2c(cc3c(c2OC)OCO3)CCN1C [noscapine, reference compound] | 64 |  |  |  |  | 16 |
